{
  "source": "ChEMBL document CHEMBL5537118",
  "about": "“Synthesis of cinnamoyl tethered indoline derivatives with anti-inflammatory and antioxidant activities” (Eur J Med Chem, 2024)",
  "key": {"RAW264.7 [1]": {"tested_on": "RAW264.7", "test": "Antioxidant activity in H2O2-stimulated mouse RAW264.7 cells assessed as protection against cell damage at 2 uM pretreated for 30 mins followed by H2O2 stimulation and measured after 4 hrs by MTT assay relative to control", "assay_type": "functional", "details": "time 4.5 hrs"}, "RAW264.7 [2]": {"tested_on": "RAW264.7", "test": "Inhibition of NF-kappaB activation in LPS-induced mouse RAW264.7 cells assessed as inhibition of p65 phosphorylation by measuring reduction in p-p65/p65 expression at 0.5 to 2 uM by Western blot analysis", "assay_type": "cell-based", "details": "dose 0.5-2 µM"}, "Mus musculus [3]": {"tested_on": "Mus musculus", "test": "Antiinflammatory activity in carrageenan-induced Kunming mouse model of paw edema assessed as edema inhibition at 30 mg/kg, IG pretreated for 1 hr followed by carrageenan administration and measured after 5 hrs relative to control", "assay_type": "functional", "details": "po, time 6 hrs"}, "Mus musculus [4]": {"tested_on": "Mus musculus", "test": "Antiinflammatory activity in carrageenan-induced Kunming mouse model of paw edema assessed as edema inhibition at 30 mg/kg, IG pretreated for 1 hr followed by carrageenan administration and measured after 1 hr relative to control", "assay_type": "functional", "details": "po, time 2 hrs"}, "Mus musculus [5]": {"tested_on": "Mus musculus", "test": "Antiinflammatory activity in carrageenan-induced Kunming mouse model of paw edema assessed as edema inhibition at 10 mg/kg, ip pretreated for 1 hr followed by carrageenan administration and measured after 1 hr relative to control", "assay_type": "functional", "details": "time 2 hrs"}, "Mus musculus [6]": {"tested_on": "Mus musculus", "test": "Antiinflammatory activity in carrageenan-induced Kunming mouse model of paw edema assessed as edema inhibition at 30 mg/kg, ip pretreated for 1 hr followed by carrageenan administration and measured after 3 hrs relative to control", "assay_type": "functional", "details": "time 4 hrs"}, "Mus musculus [7]": {"tested_on": "Mus musculus", "test": "Antiinflammatory activity in carrageenan-induced Kunming mouse model of paw edema assessed as paw volume at 10 mg/kg, ip pretreated for 1 hr followed by carrageenan administration and measured immediately by digital plethysmometer (reference value: 0.116 +/- 0.042 mL)", "assay_type": "functional"}, "Mus musculus [8]": {"tested_on": "Mus musculus", "test": "Antioxidant activity in carrageenan-induced Kunming mouse model of paw edema assessed as increase in SOD activity in paw tissue at 1 to 30 mg/kg, ip pretreated for 1 hr followed by carrageenan administration and measured after 5 hrs by ELISA", "assay_type": "functional, organism-based", "details": "dose 1-30 mg/kg, time 6.0 hrs"}, "RAW264.7 [9]": {"tested_on": "RAW264.7", "test": "Antioxidant activity in LPS-induced mouse RAW264.7 cells assessed as upregulation of HO-1 protein expression incubated for 24 hrs by Western blot analysis", "assay_type": "functional, cell-based", "details": "dose 0.5-2 µM"}, "Mus musculus [10]": {"tested_on": "Mus musculus", "test": "Antiinflammatory activity in carrageenan-induced Kunming mouse model of paw edema assessed as edema inhibition at 10 mg/kg, ip pretreated for 1 hr followed by carrageenan administration and measured after 5 hrs relative to control", "assay_type": "functional", "details": "time 6 hrs"}, "Mus musculus [11]": {"tested_on": "Mus musculus", "test": "Antiinflammatory activity in carrageenan-induced Kunming mouse model of paw edema assessed as edema inhibition at 1 mg/kg, ip pretreated for 1 hr followed by carrageenan administration and measured after 1 hr relative to control", "assay_type": "functional", "details": "time 2 hrs"}, "[12]": {"test": "Cytotoxicity against mouse RAW264.7 cells assessed as cell viability at 2 to 10 uM measured after 24 hrs", "assay_type": "toxicity, cell-based", "details": "dose 2-10 µM, read-out: Activity"}, "RAW264.7 [13]": {"tested_on": "RAW264.7", "test": "Antiinflammatory activity in LPS-induced mouse RAW264.7 cells assessed as reduction in TNF-alpha level incubated for 24 hrs by ELISA", "assay_type": "functional, cell-based"}, "RAW264.7 [14]": {"tested_on": "RAW264.7", "test": "Effect on p65 total protein expression in LPS-induced mouse RAW264.7 cells at 0.5 to 2 uM by Western blot analysis", "assay_type": "functional, cell-based", "details": "dose 0.5-2 µM"}, "Mus musculus [15]": {"tested_on": "Mus musculus", "test": "Antioxidant activity in carrageenan-induced Kunming mouse model of paw edema assessed as reduction in MDA level in paw tissue at 1 to 30 mg/kg, ip pretreated for 1 hr followed by carrageenan administration and measured after 5 hrs by ELISA", "assay_type": "functional, organism-based", "details": "dose 1-30 mg/kg, time 6.0 hrs"}, "Mus musculus [16]": {"tested_on": "Mus musculus", "test": "Antiinflammatory activity in carrageenan-induced Kunming mouse model of paw edema assessed as edema inhibition at 30 mg/kg, ip pretreated for 1 hr followed by carrageenan administration and measured after 5 hrs relative to control", "assay_type": "functional", "details": "time 6 hrs"}, "Mus musculus [17]": {"tested_on": "Mus musculus", "test": "Antiinflammatory activity in carrageenan-induced Kunming mouse model of paw edema assessed as edema inhibition at 10 mg/kg, ip pretreated for 1 hr followed by carrageenan administration and measured after 3 hrs relative to control", "assay_type": "functional", "details": "time 4 hrs"}, "Mus musculus [18]": {"tested_on": "Mus musculus", "test": "Antiinflammatory activity in carrageenan-induced Kunming mouse model of paw edema assessed as paw volume at 1 mg/kg, ip pretreated for 1 hr followed by carrageenan administration and measured immediately by digital plethysmometer (reference value: 0.116 +/- 0.042 mL)", "assay_type": "functional"}, "RAW264.7 [19]": {"tested_on": "RAW264.7", "test": "Antiinflammatory activity in LPS-induced mouse RAW264.7 cells assessed as inhibition of iNOS protein expression at around 2 uM incubated for 24 hrs by Western blot analysis relative to control", "assay_type": "functional"}, "RAW264.7 [20]": {"tested_on": "RAW264.7", "test": "Inhibition of ROS burst in rotenone-stimulated mouse RAW264.7 cells assessed as reduction in ROS level at 1 uM pretreated for 30 mins followed by rotenone addition and measured after 4 hrs by DCFH-DA staining based flow cytometry analysis relative to control", "assay_type": "functional", "details": "time 4.5 hrs"}, "Mus musculus [21]": {"tested_on": "Mus musculus", "test": "Antiinflammatory activity in carrageenan-induced Kunming mouse model of paw edema assessed as reduction in iNOS protein expression in paw tissue at 1 to 30 mg/kg, ip pretreated for 1 hr followed by carrageenan administration and measured after 5 hrs by Western blot analysis", "assay_type": "functional, organism-based", "details": "dose 1-30 mg/kg, time 6.0 hrs"}, "Mus musculus [22]": {"tested_on": "Mus musculus", "test": "Antiinflammatory activity in carrageenan-induced Kunming mouse model of paw edema assessed as paw volume at 30 mg/kg, IG pretreated for 1 hr followed by carrageenan administration and measured immediately by digital plethysmometer (reference value: 0.144 +/- 0.026 mL)", "assay_type": "functional"}, "Mus musculus [23]": {"tested_on": "Mus musculus", "test": "Antiinflammatory activity in carrageenan-induced Kunming mouse model of paw edema assessed as edema inhibition at 1 mg/kg, ip pretreated for 1 hr followed by carrageenan administration and measured after 5 hrs relative to control", "assay_type": "functional", "details": "time 6 hrs"}, "RAW264.7 [24]": {"tested_on": "RAW264.7", "test": "Inhibition of ROS burst in rotenone-stimulated mouse RAW264.7 cells assessed as reduction in ROS level at 0.5 to 2 uM pretreated for 30 mins followed by rotenone addition and measured after 4 hrs by DCFH-DA staining based flow cytometry analysis", "assay_type": "functional, cell-based", "details": "dose 0.5-2 µM, time 4.5 hrs"}, "Mus musculus [25]": {"tested_on": "Mus musculus", "test": "Antiinflammatory activity in carrageenan-induced Kunming mouse model of paw edema assessed as paw volume at 30 mg/kg, IG pretreated for 1 hr followed by carrageenan administration and measured after 5 hrs by digital plethysmometer (reference value: 0.353 +/- 0.024 mL)", "assay_type": "functional", "details": "time 6 hrs"}, "RAW264.7 [26]": {"tested_on": "RAW264.7", "test": "Effect on HO-1 protein expression in mouse RAW264.7 cells at 0.5 to 2 uM incubated for 24 hrs by Western blot analysis", "assay_type": "functional, cell-based", "details": "dose 0.5-2 µM"}, "RAW264.7 [27]": {"tested_on": "RAW264.7", "test": "Antiinflammatory activity in LPS-induced mouse RAW264.7 cells assessed as inhibition of NO production pretreated for 1 hr followed by LPS addition and measured after 24 hrs by griess reagent based assay", "assay_type": "functional, cell-based"}, "Mus musculus [28]": {"tested_on": "Mus musculus", "test": "Antiinflammatory activity in carrageenan-induced Kunming mouse model of paw edema assessed as paw volume at 30 mg/kg, IG pretreated for 1 hr followed by carrageenan administration and measured after 1 hr by digital plethysmometer (reference value: 0.407 +/- 0.023 mL)", "assay_type": "functional", "details": "time 2 hrs"}, "RAW264.7 [29]": {"tested_on": "RAW264.7", "test": "Antioxidant activity in H2O2-stimulated mouse RAW264.7 cells assessed as protection against cell damage at 2 to 5 uM pretreated for 30 mins followed by H2O2 stimulation and measured after 4 hrs by MTT assay", "assay_type": "functional, cell-based", "details": "dose 2-5 µM, time 4.5 hrs"}, "Mus musculus [30]": {"tested_on": "Mus musculus", "test": "Antiinflammatory activity in carrageenan-induced Kunming mouse model of paw edema assessed as edema inhibition at 1 mg/kg, ip pretreated for 1 hr followed by carrageenan administration and measured after 3 hrs relative to control", "assay_type": "functional", "details": "time 4 hrs"}},
  "note": "Active and inactive are the calls of the source. The rule behind the calls is not given here.",
  "data": [
    {"smiles": "O=C(/C=C/c1ccc(O)c(O)c1)NCCCN1CCc2cc(Cl)ccc21", "values": [
      {"measurement": "Activity", "setting": "RAW264.7 [1]", "value": "~100", "unit": "%"},
      {"measurement": "inhibition", "setting": "RAW264.7 [2]", "value": "Active"},
      {"measurement": "inhibition in vivo at 30 mg/kg", "setting": "Mus musculus [3]", "value": 58.1, "unit": "%"},
      {"measurement": "inhibition in vivo at 30 mg/kg", "setting": "Mus musculus [4]", "value": 24.6, "unit": "%"},
      {"measurement": "inhibition in vivo at 10 mg/kg", "setting": "Mus musculus [5]", "value": 75.7, "unit": "%"},
      {"measurement": "inhibition in vivo at 30 mg/kg", "setting": "Mus musculus [6]", "value": 95.9, "unit": "%"},
      {"measurement": "Activity", "setting": "Mus musculus [7]", "value": 0.128, "unit": "mL"},
      {"measurement": "Activity", "setting": "Mus musculus [8]", "value": "Active"},
      {"measurement": "Activity", "setting": "RAW264.7 [9]", "value": "Active"},
      {"measurement": "inhibition in vivo at 10 mg/kg", "setting": "Mus musculus [10]", "value": 86.6, "unit": "%"},
      {"measurement": "inhibition in vivo at 1 mg/kg", "setting": "Mus musculus [11]", "value": 27.6, "unit": "%"},
      {"measurement": "viability at 24 h, 10 µM", "setting": "[12]", "value": "> 85", "unit": "%"},
      {"measurement": "Activity", "setting": "RAW264.7 [13]", "value": "Dose-Dependent Effect"},
      {"measurement": "IC50", "setting": "RAW264.7 [13]; RAW264.7, 24 h", "value": 1.52, "unit": "µM"},
      {"measurement": "Activity", "setting": "RAW264.7 [14]", "value": "inactive"},
      {"measurement": "Activity", "setting": "Mus musculus [15]", "value": "Active"},
      {"measurement": "inhibition in vivo at 30 mg/kg", "setting": "Mus musculus [16]", "value": 94.1, "unit": "%"},
      {"measurement": "inhibition in vivo at 10 mg/kg", "setting": "Mus musculus [17]", "value": 82.8, "unit": "%"},
      {"measurement": "Activity", "setting": "Mus musculus [18]", "value": 0.131, "unit": "mL"},
      {"measurement": "inhibition at 2 µM", "setting": "RAW264.7 [19]", "value": 50, "unit": "%"},
      {"measurement": "inhibition at 1 µM", "setting": "RAW264.7 [20]", "value": "~100", "unit": "%"},
      {"measurement": "Activity", "setting": "Mus musculus [21]", "value": "Active"},
      {"measurement": "Activity", "setting": "Mus musculus [22]", "value": 0.138, "unit": "mL"},
      {"measurement": "inhibition in vivo at 1 mg/kg", "setting": "Mus musculus [23]", "value": 57.3, "unit": "%"},
      {"measurement": "inhibition", "setting": "RAW264.7 [24]", "value": "Active"},
      {"measurement": "Activity", "setting": "Mus musculus [25]", "value": 0.227, "unit": "mL"},
      {"measurement": "Activity", "setting": "RAW264.7 [26]", "value": "inactive"},
      {"measurement": "IC50", "setting": "RAW264.7 [27]", "value": 0.9, "unit": "µM"},
      {"measurement": "Activity", "setting": "Mus musculus [28]", "value": 0.339, "unit": "mL"},
      {"measurement": "Activity", "setting": "RAW264.7 [29]", "value": "Active"},
      {"measurement": "inhibition in vivo at 1 mg/kg", "setting": "Mus musculus [30]", "value": 45.1, "unit": "%"}
    ]}
  ]
}
